From patent EP4745135A1 (Gluetacs Therapeutics (Shanghai) Co., Ltd., priority 2023, dated 2025)

Experiments:
[1] = tested on: Human multiple myeloma peripheral blood B lymphocyte cell (RPMI-8226); experiment: Tumor cell proliferation inhibition (CellTiter-Meiluncell luminescent cell viability assay); details: RPMI-8226, 96 h; for inhibition at 0.01 µM: read-out: Inhibition Rate at 10 nM (%); for inhibition at 0.5 µM: read-out: Inhibition Rate at 500 nM (%)
GSPT1 = experiment: Western blot, degradation of substrate protein in hPBMCs; type: cell-based, Human
IKZF1 = target: T1, IKZF1 (Homo sapiens, UniProt Q13422+Q96SW2); experiment: as above; type: cell-based
T1 construct: effects of the compounds of the present disclosure on the expression of target proteins in cells; endogenous in cells; host or cells: human PBMCs (Milecell Biotechnologies)

WEE1 = target: T2, WEE1 (Homo sapiens, UniProt P30291+Q96SW2); experiment: as above; type: cell-based
T2 construct: effects of the compounds of the present disclosure on the expression of target proteins in cells; endogenous in cells; host or cells: human PBMCs (Milecell Biotechnologies)

IKZF3 = target: T3, IKZF3 (Homo sapiens, UniProt Q96SW2+Q9UKT9); experiment: as above; type: cell-based
T3 construct: effects of the compounds of the present disclosure on the expression of target proteins in cells; endogenous in cells; host or cells: human PBMCs (Milecell Biotechnologies)

IKZF2 = target: T4, IKZF2 (Homo sapiens, UniProt Q96SW2+Q9UKS7); experiment: as above; type: cell-based
T4 construct: effects of the compounds of the present disclosure on the expression of target proteins in cells; endogenous in cells; host or cells: human PBMCs (Milecell Biotechnologies)

CK1α = target: T5, CK1α (Homo sapiens, UniProt P48729+Q96SW2); experiment: as above; type: cell-based
T5 construct: effects of the compounds of the present disclosure on the expression of target proteins in cells; endogenous in cells; host or cells: human PBMCs (Milecell Biotechnologies)

[2] = target: T6, human Cereblon WT GST-tagged protein (Homo sapiens, UniProt Q96SW2); experiment: CRBN-binding affinity, HTRF (CEREBLON BINDING kit); details: for inhibition at 0.5 µM: read-out: Inhibition Rate at 0.5 µM (%); for inhibition at 2 µM: read-out: Inhibition Rate at 2 µM (%)
T6 construct: purchased CISBIO 64BDCRBNPEH

[3] = tested on: Human myeloid monocytic leukemia cell (MV-4-11); experiment: Tumor cell proliferation inhibition (CellTiter-Meiluncell luminescent cell viability assay); details: MV4-11, 96 h; for inhibition at 0.01 µM: read-out: Inhibition Rate at 10 nM (%); for inhibition at 0.5 µM: read-out: Inhibition Rate at 500 nM (%)
[4] = tested on: Human breast cancer cell (MCF-7); experiment: as above; details: MCF7, 96 h; for inhibition at 0.01 µM: read-out: Inhibition Rate at 10 nM (%); for inhibition at 0.5 µM: read-out: Inhibition Rate at 500 nM (%)
[5] = tested on: Human multiple myeloma cell (MM.1S); experiment: as above; details: for inhibition at 0.01 µM / inhibition at 0.5 µM: Homo sapiens, MM1.S, 96 h; for inhibition at 0.01 µM: read-out: Inhibition Rate at 10 nM (%); for inhibition at 0.5 µM: read-out: Inhibition Rate at 500 nM (%)
[6] = tested on: Human acute T lymphocytic leukemia cell (Molt4); experiment: as above; details: MOLT-4, 96 h
[7] = Western blot, 24 hours of compound treatment, compounds tested at 50 nM and 500 nM (concentration for the table not stated)
[8] = 24 hours treatment, compounds at 50 nM and 500 nM (concentration behind the class not stated)

T2 sequence (P30291 whole entry): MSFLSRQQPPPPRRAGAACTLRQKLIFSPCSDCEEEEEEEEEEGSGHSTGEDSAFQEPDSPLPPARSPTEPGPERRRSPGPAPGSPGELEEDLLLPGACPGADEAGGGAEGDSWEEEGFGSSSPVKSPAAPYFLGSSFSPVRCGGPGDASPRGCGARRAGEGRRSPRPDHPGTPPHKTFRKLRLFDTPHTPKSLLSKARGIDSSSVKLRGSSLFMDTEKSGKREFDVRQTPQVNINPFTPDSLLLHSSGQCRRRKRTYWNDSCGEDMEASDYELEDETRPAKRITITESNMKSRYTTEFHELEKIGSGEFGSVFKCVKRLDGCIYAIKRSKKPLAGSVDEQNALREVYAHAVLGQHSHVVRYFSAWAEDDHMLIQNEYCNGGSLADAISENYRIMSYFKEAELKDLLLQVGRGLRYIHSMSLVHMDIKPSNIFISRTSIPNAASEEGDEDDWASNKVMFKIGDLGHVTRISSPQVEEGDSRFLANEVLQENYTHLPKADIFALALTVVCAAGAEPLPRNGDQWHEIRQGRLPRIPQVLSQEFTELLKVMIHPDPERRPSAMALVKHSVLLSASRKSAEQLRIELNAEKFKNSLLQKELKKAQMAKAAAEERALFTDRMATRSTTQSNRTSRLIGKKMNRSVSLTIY
T2 sequence (Q96SW2 whole entry): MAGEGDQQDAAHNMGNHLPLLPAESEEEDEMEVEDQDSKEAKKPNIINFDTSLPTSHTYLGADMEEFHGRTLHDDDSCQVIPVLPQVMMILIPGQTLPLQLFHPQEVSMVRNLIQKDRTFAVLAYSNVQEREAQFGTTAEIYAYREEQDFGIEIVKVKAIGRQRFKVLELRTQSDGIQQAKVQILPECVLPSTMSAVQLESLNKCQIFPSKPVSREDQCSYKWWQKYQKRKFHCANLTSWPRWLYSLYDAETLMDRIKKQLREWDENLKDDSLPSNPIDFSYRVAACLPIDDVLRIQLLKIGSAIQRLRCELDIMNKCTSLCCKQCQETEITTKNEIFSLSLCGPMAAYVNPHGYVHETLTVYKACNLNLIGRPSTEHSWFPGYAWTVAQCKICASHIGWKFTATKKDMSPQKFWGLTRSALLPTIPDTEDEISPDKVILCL
T2 sequence (Q16531 whole entry partner): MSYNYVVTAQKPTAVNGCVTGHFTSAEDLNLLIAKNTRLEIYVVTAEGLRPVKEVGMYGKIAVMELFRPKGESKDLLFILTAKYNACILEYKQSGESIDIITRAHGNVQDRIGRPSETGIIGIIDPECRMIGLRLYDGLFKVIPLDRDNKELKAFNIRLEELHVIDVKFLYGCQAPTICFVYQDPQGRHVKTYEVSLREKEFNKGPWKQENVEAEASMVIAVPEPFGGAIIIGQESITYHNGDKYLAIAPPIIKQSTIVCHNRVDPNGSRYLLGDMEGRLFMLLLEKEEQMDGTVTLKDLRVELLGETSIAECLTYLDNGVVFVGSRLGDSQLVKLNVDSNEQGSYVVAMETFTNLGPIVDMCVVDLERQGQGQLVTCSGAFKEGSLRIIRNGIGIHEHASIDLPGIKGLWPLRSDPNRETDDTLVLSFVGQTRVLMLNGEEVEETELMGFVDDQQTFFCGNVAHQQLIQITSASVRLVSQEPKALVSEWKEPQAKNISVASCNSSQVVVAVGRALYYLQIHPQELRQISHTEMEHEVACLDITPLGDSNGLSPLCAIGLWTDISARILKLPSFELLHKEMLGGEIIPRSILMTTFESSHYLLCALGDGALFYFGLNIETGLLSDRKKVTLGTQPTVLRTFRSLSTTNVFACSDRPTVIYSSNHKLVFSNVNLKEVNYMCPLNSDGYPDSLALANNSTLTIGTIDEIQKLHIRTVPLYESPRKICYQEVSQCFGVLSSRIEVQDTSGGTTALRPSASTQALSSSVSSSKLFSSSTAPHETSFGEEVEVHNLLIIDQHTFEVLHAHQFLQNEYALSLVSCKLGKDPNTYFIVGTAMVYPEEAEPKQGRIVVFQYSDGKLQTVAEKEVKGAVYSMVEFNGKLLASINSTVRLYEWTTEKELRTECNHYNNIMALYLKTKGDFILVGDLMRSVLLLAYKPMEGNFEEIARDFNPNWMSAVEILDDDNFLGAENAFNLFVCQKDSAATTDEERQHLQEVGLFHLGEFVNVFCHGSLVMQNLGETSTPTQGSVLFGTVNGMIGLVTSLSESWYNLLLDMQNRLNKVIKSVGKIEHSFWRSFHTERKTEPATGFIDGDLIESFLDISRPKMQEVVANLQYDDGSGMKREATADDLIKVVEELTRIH
T1 sequence (Q13422 whole entry): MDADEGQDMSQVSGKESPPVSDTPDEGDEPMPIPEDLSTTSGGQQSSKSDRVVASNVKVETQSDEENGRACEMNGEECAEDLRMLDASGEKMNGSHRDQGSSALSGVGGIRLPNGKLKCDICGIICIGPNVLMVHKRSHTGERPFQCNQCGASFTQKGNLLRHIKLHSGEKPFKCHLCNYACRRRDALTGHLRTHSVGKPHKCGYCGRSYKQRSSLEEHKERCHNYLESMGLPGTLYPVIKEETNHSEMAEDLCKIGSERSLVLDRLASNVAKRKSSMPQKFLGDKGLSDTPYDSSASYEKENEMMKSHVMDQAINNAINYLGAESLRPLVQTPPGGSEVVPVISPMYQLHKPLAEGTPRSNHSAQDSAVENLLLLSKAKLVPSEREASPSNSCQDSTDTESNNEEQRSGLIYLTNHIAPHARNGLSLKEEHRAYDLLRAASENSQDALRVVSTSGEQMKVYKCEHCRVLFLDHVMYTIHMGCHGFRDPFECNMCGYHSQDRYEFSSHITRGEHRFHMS
T1 sequence (Q96SW2 whole entry): as the sequence (Q96SW2 whole entry) above
T1 sequence (Q16531 whole entry partner): as the sequence (Q16531 whole entry partner) above
T4 sequence (Q9UKS7 whole entry): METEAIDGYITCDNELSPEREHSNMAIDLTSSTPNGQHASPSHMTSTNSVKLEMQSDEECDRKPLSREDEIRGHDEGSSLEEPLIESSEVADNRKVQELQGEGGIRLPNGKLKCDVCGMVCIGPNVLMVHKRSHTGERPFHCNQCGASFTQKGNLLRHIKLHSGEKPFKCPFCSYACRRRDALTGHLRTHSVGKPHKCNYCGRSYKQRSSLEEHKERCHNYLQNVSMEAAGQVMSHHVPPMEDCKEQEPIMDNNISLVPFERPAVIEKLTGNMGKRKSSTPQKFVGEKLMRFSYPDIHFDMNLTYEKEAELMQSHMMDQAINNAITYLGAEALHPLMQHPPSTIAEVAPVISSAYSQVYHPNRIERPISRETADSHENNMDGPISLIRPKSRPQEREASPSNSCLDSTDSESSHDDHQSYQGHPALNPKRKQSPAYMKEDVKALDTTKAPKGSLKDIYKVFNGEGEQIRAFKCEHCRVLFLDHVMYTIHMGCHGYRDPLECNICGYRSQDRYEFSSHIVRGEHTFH
T4 sequence (Q96SW2 whole entry): as the sequence (Q96SW2 whole entry) above
T4 sequence (Q16531 whole entry partner): as the sequence (Q16531 whole entry partner) above
T3 sequence (Q9UKT9 whole entry): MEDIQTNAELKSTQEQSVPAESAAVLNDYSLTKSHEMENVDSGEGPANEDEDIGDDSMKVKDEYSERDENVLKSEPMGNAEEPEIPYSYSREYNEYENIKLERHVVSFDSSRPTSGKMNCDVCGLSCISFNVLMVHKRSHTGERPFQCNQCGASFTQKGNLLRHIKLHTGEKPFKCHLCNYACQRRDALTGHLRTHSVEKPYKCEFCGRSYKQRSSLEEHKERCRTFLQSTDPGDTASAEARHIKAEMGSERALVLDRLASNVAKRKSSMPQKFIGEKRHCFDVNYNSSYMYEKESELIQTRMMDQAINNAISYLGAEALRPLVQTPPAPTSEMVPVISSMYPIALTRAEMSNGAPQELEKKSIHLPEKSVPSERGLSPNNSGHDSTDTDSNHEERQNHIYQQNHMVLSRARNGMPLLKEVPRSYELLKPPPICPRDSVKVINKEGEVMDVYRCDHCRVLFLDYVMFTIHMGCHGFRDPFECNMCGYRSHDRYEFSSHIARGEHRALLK
T3 sequence (Q96SW2 whole entry): as the sequence (Q96SW2 whole entry) above
T3 sequence (Q16531 whole entry partner): as the sequence (Q16531 whole entry partner) above
T6 sequence (Q96SW2 whole entry): as the sequence (Q96SW2 whole entry) above
T5 sequence (P48729 whole entry): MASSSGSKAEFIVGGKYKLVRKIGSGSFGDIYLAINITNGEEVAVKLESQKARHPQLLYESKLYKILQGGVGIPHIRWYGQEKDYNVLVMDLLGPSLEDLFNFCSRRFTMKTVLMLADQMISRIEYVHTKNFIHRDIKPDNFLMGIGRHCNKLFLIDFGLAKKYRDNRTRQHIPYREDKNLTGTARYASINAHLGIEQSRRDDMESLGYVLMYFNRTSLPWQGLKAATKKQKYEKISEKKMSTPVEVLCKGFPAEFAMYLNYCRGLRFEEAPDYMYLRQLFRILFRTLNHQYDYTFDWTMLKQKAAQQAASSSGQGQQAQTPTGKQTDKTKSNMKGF
T5 sequence (Q96SW2 whole entry): as the sequence (Q96SW2 whole entry) above
T5 sequence (Q16531 whole entry partner): as the sequence (Q16531 whole entry partner) above

| SMILES | inhibition at 0.5 µM [2] | inhibition at 2 µM [2] | GSPT1 substrate protein remaining % (GSPT1; [7]) | IKZF 1 substrate protein remaining % (IKZF1; [7]) | Wee1 substrate protein remaining % (WEE1; [7]) | IKZF3 substrate protein remaining % (IKZF3; [7]) | IKZF2 substrate protein remaining % (IKZF2; [7]) | CK1α substrate protein remaining % (CK1α; [7]) | inhibition at 0.01 µM [3] | inhibition at 0.5 µM [3] | inhibition at 0.01 µM [4] | inhibition at 0.5 µM [4] | inhibition at 0.01 µM [5] | inhibition at 0.5 µM [5] | further results |
| --- | --- | --- | --- | --- | --- | --- | --- | --- | --- | --- | --- | --- | --- | --- | --- |
| O=C1CCC(N2Cc3c(CN4C[C@@H]5C[C@H]4CN5C(c4ccccc4)c4ccccc4)cccc3C2=S)C(=O)N1 (stereo partly drawn) [GT-08207, 3-(4-(((1 S,4S)-5-benzhydryl-2,5-diazabicyclo[2.2.1]heptan-2-yl)methyl)-1-thioxoisoindolin-2-yl)piperidine-2,6-dione] | 40 to 53% | 60 to 80% | A (0% ≤ substrate protein remaining % ≤ 80%) | A (0% ≤ substrate protein remaining % ≤ 80%) | A (0% ≤ substrate protein remaining % ≤ 80%) | B (80%< substrate protein remaining %≤ 100%) | B (80%< substrate protein remaining %≤ 100%) | B (80%< substrate protein remaining %≤ 100%) | – | – | – | – | – | – | inhibition at 0.01 µM [1]: 50 to 60%; inhibition at 0.5 µM [1]: 60 to 70% |
| Cc1ccc(N2CCN(Cc3cccc4c3CN(C3CCC(=O)NC3=O)C4=S)CC2)c(C)c1 (stereo not shown) [GT-08504, 3-(4-((4-(2,4-dimethylphenyl)piperazin-1-yl)methyl)-1-thioxoisoindolin-2-yl)piperidine-2,6-dione] | 30 to 40% | 60 to 80% | A (0% ≤ substrate protein remaining % ≤ 80%) | B (80%< substrate protein remaining %≤ 100%) | A (0% ≤ substrate protein remaining % ≤ 80%) | A (0% ≤ substrate protein remaining % ≤ 80%) | B (80%< substrate protein remaining %≤ 100%) | B (80%< substrate protein remaining %≤ 100%) | 40 to 60% | 40 to 60% | 20 to 30% | 40 to 50% | 30 to 40% | 50 to 60% | – |
| O=C1CCC(N2Cc3c(CN4CC(C5CCOc6cc(F)ccc65)C4)cccc3C2=S)C(=O)N1 (stereo not shown) [GT-08859, 3-(4-((3-(7-fluorochroman-4-yl)azetidin-1-yl)methyl)-1-thioxoisoindolin-2-yl)piperidine-2,6-dione] | 53 to 60% | 80 to 100% | – | – | – | – | – | – | – | – | 50 to 60% | 40 to 50% | 30 to 40% | 50 to 60% | GSPT1 substrate protein remaining % (GSPT1; [8]): A (0% ≤ substrate protein remaining % ≤ 80%); IKZF 1 substrate protein remaining % (IKZF1; [8]): B (80%< substrate protein remaining %≤ 100%); Wee1 substrate protein remaining % (WEE1; [8]): B (80%< substrate protein remaining %≤ 100%); IKZF3 substrate protein remaining % (IKZF3; [8]): B (80%< substrate protein remaining %≤ 100%); IKZF2 substrate protein remaining % (IKZF2; [8]): B (80%< substrate protein remaining %≤ 100%); CK1α substrate protein remaining % (CK1α; [8]): B (80%< substrate protein remaining %≤ 100%) |
| Cn1cc(C2CCN(Cc3ccc4c(c3)CN(C3CCC(=O)NC3=O)C4=S)CC2)c2ccc(F)cc21 (stereo not shown) [GT-09267, 3-(5-((4-(6-fluoro-1-methyl-1H-indol-3-yl)piperidin-1-yl)methyl)-1-thioxoisoindolin-2-yl)piperidine-2,6-dione] | 53 to 60% | 80 to 100% | – | – | – | – | – | – | 80 to 100% | 80 to 100% | 5 to 10% | 70 to 80% | 70 to 80% | 80 to 100% | GSPT1 substrate protein remaining % (GSPT1; [8]): A (0% ≤ substrate protein remaining % ≤ 80%); IKZF 1 substrate protein remaining % (IKZF1; [8]): A (0% ≤ substrate protein remaining % ≤ 80%); Wee1 substrate protein remaining % (WEE1; [8]): A (0% ≤ substrate protein remaining % ≤ 80%); IKZF3 substrate protein remaining % (IKZF3; [8]): A (0% ≤ substrate protein remaining % ≤ 80%); IKZF2 substrate protein remaining % (IKZF2; [8]): A (0% ≤ substrate protein remaining % ≤ 80%); CK1α substrate protein remaining % (CK1α; [8]): B (80%< substrate protein remaining %≤ 100%); inhibition at 0.01 µM ([6]; read-out: Inhibition Rate at 10 nM (%)): 80 to 100%; inhibition at 0.5 µM ([6]; read-out: Inhibition Rate at 500 nM (%)): 80 to 100% |
| O=C1CCC(N2Cc3cc(CN4CCC(N5CCCc6cc(F)ccc65)CC4)ccc3C2=S)C(=O)N1 (stereo not shown) [GT-09271, 3-(5-((4-(6-fluoro-3,4-dihydroquinolin-1(2H)-yl)piperidin-1-yl)methyl)-1-thioxoisoindolin-2-yl)piperidine-2,6-dione] | 60 to 80% | 80 to 100% | – | – | – | – | – | – | 40 to 60% | 40 to 60% | 20 to 30% | 40 to 50% | – | – | – |

More lines, main results first:

| inhibition at 0.5 µM [2] | inhibition at 2 µM [2] | SMILES | GSPT1 substrate protein remaining % (GSPT1; [7]) | IKZF 1 substrate protein remaining % (IKZF1; [7]) | Wee1 substrate protein remaining % (WEE1; [7]) | IKZF3 substrate protein remaining % (IKZF3; [7]) | IKZF2 substrate protein remaining % (IKZF2; [7]) | CK1α substrate protein remaining % (CK1α; [7]) | inhibition at 0.01 µM [3] | inhibition at 0.5 µM [3] | inhibition at 0.01 µM [4] | inhibition at 0.5 µM [4] | inhibition at 0.01 µM [5] | inhibition at 0.5 µM [5] | further results |
| --- | --- | --- | --- | --- | --- | --- | --- | --- | --- | --- | --- | --- | --- | --- | --- |
| 40 to 53% | 80 to 100% | O=C1CCC(N2Cc3c(CN4CCN(C(c5ccccc5)c5ccncc5)CC4)cccc3C2=S)C(=O)N1 (stereo not shown) [GT-08204, 3-(4-((4-(phenyl(pyridin-4-yl)methyl)piperazin-1-yl)methyl)-1-thioxoisoindolin-2-yl)piperidine-2,6-dione] | B (80%< substrate protein remaining %≤ 100%) | B (80%< substrate protein remaining %≤ 100%) | A (0% ≤ substrate protein remaining % ≤ 80%) | B (80%< substrate protein remaining %≤ 100%) | B (80%< substrate protein remaining %≤ 100%) | B (80%< substrate protein remaining %≤ 100%) | – | – | – | – | – | – | inhibition at 0.01 µM [1]: 60 to 70%; inhibition at 0.5 µM [1]: 70 to 80% |
| 60 to 80% | 80 to 100% | O=C1CCC(N2Cc3c(CN4CCN(c5n[nH]c6cc(F)ccc56)CC4)cccc3C2=S)C(=O)N1 (stereo not shown) [GT-08840, 3-(4-((4-(6-fluoro-1H-indazol-3-yl)piperazin-1-yl)methyl)-1-thioxoisoindolin-2-yl)piperidine-2,6-dione] | B (80%< substrate protein remaining %≤ 100%) | B (80%< substrate protein remaining %≤ 100%) | A (0% ≤ substrate protein remaining % ≤ 80%) | B (80%< substrate protein remaining %≤ 100%) | B (80%< substrate protein remaining %≤ 100%) | B (80%< substrate protein remaining %≤ 100%) | 40 to 60% | 40 to 60% | 50 to 60% | 60 to 70% | – | – | – |
| 60 to 80% | 80 to 100% | Cc1cc(N2CCN(Cc3ccc4c(c3)CN(C3CCC(=O)NC3=O)C4=S)CC2)cc(C)n1 (stereo not shown) [GT-09247, 3-(5-((4-(2,6-dimethylpyridin-4-yl)piperazin-1-yl)methyl)-1-thioxoisoindolin-2-yl)piperidine-2,6-dione] | – | – | – | – | – | – | 40 to 60% | 40 to 60% | 20 to 30% | 40 to 50% | 50 to 60% | – | Inhibition Rate at 500 nM (%) ([5]; MM.1S, 500 nM, 96 hours): la7 |
